Columns and labels:
[1] = biological target: T1, Cannabinoid receptor 1 (Homo sapiens, UniProt P21554)
Description: Binding affinity to CB1 receptor

[2] = biological target: T2, Cannabinoid receptor 2 (Homo sapiens, UniProt P34972); assay: Binding affinity to CB2 receptor
[3] = biological target: T1, Cannabinoid receptor 1; assay: biochemical; format: cell-based, HEK293
Description: Displacement of [3H]CP-55940 from human CB1 receptor expressed in HEK293 cells

[4] = biological target: T2, Cannabinoid receptor 2; assay: Displacement of [3H]CP-55940 from human CB2 receptor expressed in CHO cells; format: cell-based
[5] = organism: Homo sapiens; assay: Selectivity for human CB1 receptor over human CB2 receptor

T1 sequence (P21554 whole entry): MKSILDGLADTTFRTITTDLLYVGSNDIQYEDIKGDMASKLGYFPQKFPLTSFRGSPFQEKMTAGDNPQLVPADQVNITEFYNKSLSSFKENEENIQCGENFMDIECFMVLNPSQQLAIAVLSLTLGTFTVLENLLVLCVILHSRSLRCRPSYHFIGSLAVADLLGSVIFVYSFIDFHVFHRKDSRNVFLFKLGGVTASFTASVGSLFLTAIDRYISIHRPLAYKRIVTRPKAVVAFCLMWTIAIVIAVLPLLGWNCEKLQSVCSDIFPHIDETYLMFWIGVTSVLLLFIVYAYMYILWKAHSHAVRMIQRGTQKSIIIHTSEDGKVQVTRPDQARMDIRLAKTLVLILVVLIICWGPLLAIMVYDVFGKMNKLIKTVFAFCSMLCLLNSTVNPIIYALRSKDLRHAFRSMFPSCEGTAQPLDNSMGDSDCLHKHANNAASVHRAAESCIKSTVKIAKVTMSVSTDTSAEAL
T2 sequence (P34972 whole entry): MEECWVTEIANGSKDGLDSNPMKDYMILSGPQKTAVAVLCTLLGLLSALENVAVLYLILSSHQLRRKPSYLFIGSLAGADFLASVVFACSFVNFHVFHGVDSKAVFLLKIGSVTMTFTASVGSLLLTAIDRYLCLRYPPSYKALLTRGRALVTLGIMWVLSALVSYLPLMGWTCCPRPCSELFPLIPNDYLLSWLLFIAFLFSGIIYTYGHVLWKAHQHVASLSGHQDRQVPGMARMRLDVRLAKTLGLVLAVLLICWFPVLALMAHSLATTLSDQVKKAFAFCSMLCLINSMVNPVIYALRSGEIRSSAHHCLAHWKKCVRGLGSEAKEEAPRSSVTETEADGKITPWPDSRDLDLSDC

| Ki [1] | Ki [2] | Ki [3] | Ki [4] | Ratio Ki [5] | SMILES |
| --- | --- | --- | --- | --- | --- |
| 5.8 nM | 2310 nM | – | – | – | O=C(NN1CCCCC1)c1nn(-c2ccc(Cl)cc2Cl)c(-c2ccc(-c3cccnc3)cc2)c1CO |
| – | – | 52.8 nM | 282 nM | 5 | CC(=O)SC(CCc1ccccc1)[C@H]1C(=O)N(c2ccc(F)cc2)[C@@H]1c1ccc(O)cc1 (stereo partly specified) |
| – | 21 nM | – | – | – | O=C(NN1CCCCC1)c1nn(-c2ccc(Cl)cc2Cl)c2c1CCCc1cc(Cl)ccc1-2 |
| – | – | 839 nM | 194 nM | – | COc1ccc([C@@H]2[C@@H](Cc3cc4ccccc4o3)C(=O)N2c2ccccc2)cc1 |
| < 100 nM | – | – | – | – | CS(=O)(=O)C(=C1CN(C(c2ccc(Cl)cc2)c2ccc(Cl)cc2)C1)c1cc(F)cc(F)c1 |
| – | – | 244 nM | 1090 nM | – | COc1ccc([C@@H]2[C@@H](CCCc3cccnc3)C(=O)N2c2ccccc2)cc1 |
| – | – | 301 nM | > 1820 nM | – | O=C1[C@@H](CCC(O)c2ccc(F)cc2)[C@H](c2ccc(O)cc2)N1c1ccc(F)cc1 (stereo partly specified) |
| – | > 10000 nM | – | – | – | COc1ccc(-c2oc3cc(OC)ccc3c2C(=O)c2ccc(C#N)cc2)cc1 |
| – | – | 451 nM | 1240 nM | – | COc1ccc(C2C(CCS(=O)(=O)c3ccccc3)C(=O)N2c2ccccc2)cc1 (stereo unspecified) |

From ChEMBL document CHEMBL1144779, “Identification of novel cannabinoid CB1 receptor antagonists by using virtual screening with a pharmacophore model” (J Med Chem, 2008)
